Patent publication US20250101044A1, “METAL-ORGANIC FRAMEWORK COMPOSITE AND PREPARATION METHOD AND USE THEREOF” (priority 2021, published 2025)
Converted amounts (≈) assume the structure as drawn.

Tested on: S. aureus
Test: MIC and MBC antibacterial test
Format: cell-based
Conditions: Staphylococcus aureus

MIC: 4 µg/mL (≈ 22.2 µM)
Compound: O=C(O)/C=C/c1ccc(O)c(O)c1 [CA, caffeic acid]
MBC: 4 µg/mL (≈ 22.2 µM)
